{
  "source": "ChEMBL document CHEMBL1151450",
  "about": "“Differential activities of newer antifungal agents against Candida albicans and Candida parapsilosis biofilms” (2008)",
  "key": {"Candida parapsilosis [1]": {"tested_on": "Candida parapsilosis", "assay": "Antifungal activity against Candida parapsilosis PA/71 grown as biofilm assessed as 50% reduction in metabolic activity of biofilm after 24 hrs by XTT assay", "format": "functional", "details": "Lodderomyces parapsilosis, PA/71, 24 h"}, "Candida parapsilosis [2]": {"tested_on": "Candida parapsilosis", "assay": "Antifungal activity against Candida parapsilosis PA/71 grown as planktonic cell assessed as minimum drug level required to decrease turbidity by 50% after 24 hrs by CLSI M27-A2 method", "format": "functional", "details": "Lodderomyces parapsilosis, PA/71, 24 h"}, "Candida albicans [3]": {"tested_on": "Candida albicans", "assay": "Antifungal activity against Candida albicans GDH2346 grown as planktonic cell assessed as minimum drug level required to decrease turbidity by 50% after 24 hrs by CLSI M27-A2 method", "format": "functional", "details": "GDH2346, 24 h"}, "Candida albicans [4]": {"tested_on": "Candida albicans", "assay": "Antifungal activity against Candida albicans GDH2346 grown as biofilm assessed as 50% reduction in metabolic activity of biofilm after 24 hrs by XTT assay", "format": "functional", "details": "GDH2346, 24 h"}, "Candida albicans [5]": {"tested_on": "Candida albicans", "assay": "Antifungal activity against Candida albicans M61 grown as planktonic cell assessed as minimum drug level required to decrease turbidity by 50% after 24 hrs by CLSI M27-A2 method", "format": "functional", "details": "M61, 24 h"}, "Candida albicans [6]": {"tested_on": "Candida albicans", "assay": "Antifungal activity against Candida albicans M61 grown as biofilm assessed as maximum inhibition of biofilm metabolic activity at 0.5 mg/liter after 24 hrs by XTT assay relative to control", "format": "functional", "details": "M61, 24 h"}, "Candida albicans [7]": {"tested_on": "Candida albicans", "assay": "Antifungal activity against Candida albicans M61 grown as biofilm assessed as 50% reduction in metabolic activity of biofilm after 24 hrs by XTT assay", "format": "functional", "details": "M61, 24 h"}, "Candida albicans [8]": {"tested_on": "Candida albicans", "assay": "Antifungal activity against Candida albicans GDH2346 grown as biofilm assessed as maximum inhibition of biofilm metabolic activity at 8 mg/liter after 24 hrs by XTT assay relative to control", "format": "functional", "details": "GDH2346, 24 h"}, "Candida albicans [9]": {"tested_on": "Candida albicans", "assay": "Antifungal activity against Candida albicans GDH2346 grown as biofilm assessed as 50% reduction in metabolic activity of biofilm at 0.03 mg/liter after 24 hrs by XTT assay", "format": "functional, organism-based"}, "Candida albicans [10]": {"tested_on": "Candida albicans", "assay": "Antifungal activity against Candida albicans M61 grown as biofilm at >2 mg/liter after 24 hrs by XTT assay", "format": "functional, organism-based"}, "Candida albicans [11]": {"tested_on": "Candida albicans", "assay": "Antifungal activity against Candida albicans M61 grown as biofilm assessed as 50% reduction in metabolic activity of biofilm at 0.06 mg/liter after 24 hrs by XTT assay", "format": "functional, organism-based"}, "Candida albicans [12]": {"tested_on": "Candida albicans", "assay": "Antifungal activity against Candida albicans GDH2346 grown as biofilm >2 mg/liter after 24 hrs by XTT assay", "format": "functional, organism-based"}, "Candida parapsilosis [13]": {"tested_on": "Candida parapsilosis", "assay": "Antifungal activity against Candida parapsilosis PA/71 grown as biofilm >2 mg/liter after 24 hrs by XTT assay", "format": "functional, organism-based"}, "Candida albicans [14]": {"tested_on": "Candida albicans", "assay": "Antifungal activity against Candida albicans GDH2346 grown as biofilm assessed as maximum inhibition of biofilm metabolic activity at 2 mg/liter after 24 hrs by XTT assay relative to control", "format": "functional", "details": "GDH2346, 24 h"}, "Candida albicans [15]": {"tested_on": "Candida albicans", "assay": "Antifungal activity against Candida albicans M61 grown as biofilm assessed as maximum inhibition of biofilm metabolic activity at 2 mg/liter after 24 hrs by XTT assay relative to control", "format": "functional", "details": "M61, 24 h"}, "Candida parapsilosis [16]": {"tested_on": "Candida parapsilosis", "assay": "Antifungal activity against Candida parapsilosis PA/71 grown as biofilm assessed as 50% reduction in metabolic activity of biofilm at 256 mg/liter after 24 hrs by XTT assay", "format": "functional, organism-based"}, "Candida albicans [17]": {"tested_on": "Candida albicans", "assay": "Antifungal activity against Candida albicans M61 grown as biofilm assessed as 50% reduction in metabolic activity of biofilm at 256 mg/liter after 24 hrs by XTT assay", "format": "functional, organism-based"}, "Candida albicans [18]": {"tested_on": "Candida albicans", "assay": "Antifungal activity against Candida albicans GDH2346 grown as biofilm assessed as 50% reduction in metabolic activity of biofilm at 256 mg/liter after 24 hrs by XTT assay", "format": "functional, organism-based"}, "Candida albicans [19]": {"tested_on": "Candida albicans", "assay": "Antifungal activity against Candida albicans M61 grown as biofilm assessed as 50% reduction in metabolic activity of biofilm at 64 mg/liter after 24 hrs by XTT assay", "format": "functional, organism-based"}, "Candida parapsilosis [20]": {"tested_on": "Candida parapsilosis", "assay": "Antifungal activity against Candida parapsilosis PA/71 grown as biofilm assessed as 50% reduction in metabolic activity of biofilm at 64 mg/liter after 24 hrs by XTT assay", "format": "functional, organism-based"}, "Candida albicans [21]": {"tested_on": "Candida albicans", "assay": "Antifungal activity against Candida albicans GDH2346 grown as biofilm assessed as 50% reduction in metabolic activity of biofilm at 64 mg/liter after 24 hrs by XTT assay", "format": "functional, organism-based"}},
  "note": "Active and inactive are the calls of the source. No cut-off for these calls is given here. *1 amine or outer side, *2 acyl side, *3 side chain or, on linkers, in order; H or OH if unused. Where a SMILES comes first, the peptide text is derived from it. Bridges are numbered along the chain shown (N, C = ends). [ ]: non-standard residue; d: D form. The star is where a group is joined. pTerphenylCO(4''-OnC5H11) = CCCCCOc1ccc(-c2ccc(-c3ccc(C(=O)*)cc3)cc2)cc1; Orn(4R-OH,5R-OH) = O=C([C@H](C[C@@H](O)[C@@H](O)N[*:3])N[*:1])[*:2]; hTyr(3S-OH,4S-OH) = N[C@H](C(=O)O)[C@H](O)[C@@H](O)c1ccc(O)cc1; Pro(3S-OH,4S-Me) = C[C@H]1CN[C@H](C(=O)O)[C@H]1O; Hyp = O=C(O)[C@@H]1C[C@@H](O)CN1",
  "data": [
    {"smiles": "CCCCCOc1ccc(-c2ccc(-c3ccc(C(=O)N[C@H]4C[C@@H](O)[C@@H](O)NC(=O)[C@@H]5[C@@H](O)[C@@H](C)CN5C(=O)[C@H]([C@@H](C)O)NC(=O)[C@H]([C@H](O)[C@@H](O)c5ccc(O)cc5)NC(=O)[C@@H]5C[C@@H](O)CN5C(=O)[C@H]([C@@H](C)O)NC4=O)cc3)cc2)cc1", "note": "[ANIDULAFUNGIN] ({pTerphenylCO(4''-OnC5H11)}-[Orn(4R-OH,5R-OH)]T[Hyp][hTyr(3S-OH,4S-OH)]T[Pro(3S-OH,4S-Me)]; lactam 1-C)", "values": [
      {"measurement": "MIC", "setting": "Candida parapsilosis [1]", "result": 2, "unit": "µg/mL"},
      {"measurement": "MIC", "setting": "Candida parapsilosis [2]", "result": 0.125, "unit": "µg/mL"},
      {"measurement": "MIC", "setting": "Candida albicans [3]", "result": 0.003, "unit": "µg/mL"},
      {"measurement": "MIC", "setting": "Candida albicans [4]", "result": 0.12, "unit": "µg/mL"},
      {"measurement": "MIC", "setting": "Candida albicans [5]", "result": 0.003, "unit": "µg/mL"},
      {"measurement": "inhibition at 0.5 µg/mL", "setting": "Candida albicans [6]", "result": 40, "unit": "%"},
      {"measurement": "MIC", "setting": "Candida albicans [7]", "result": 0.5, "unit": "µg/mL"},
      {"measurement": "inhibition at 8 µg/mL", "setting": "Candida albicans [8]", "result": 40, "unit": "%"}
    ]},
    {"smiles": "CC[C@H](C)C[C@H](C)CCCCCCCCC(=O)N[C@H]1C[C@@H](O)[C@@H](NCCN)NC(=O)[C@@H]2[C@@H](O)CCN2C(=O)[C@H]([C@H](O)CCN)NC(=O)[C@H]([C@H](O)[C@@H](O)c2ccc(O)cc2)NC(=O)[C@@H]2C[C@@H](O)CN2C(=O)[C@H]([C@@H](C)O)NC1=O", "note": "[CASPOFUNGIN]", "values": [
      {"measurement": "MIC", "setting": "Candida parapsilosis [1]", "result": 1, "unit": "µg/mL"},
      {"measurement": "MIC", "setting": "Candida parapsilosis [2]", "result": 0.06, "unit": "µg/mL"},
      {"measurement": "MIC", "setting": "Candida albicans [3]", "result": 0.03, "unit": "µg/mL"},
      {"measurement": "Activity", "setting": "Candida albicans [9]", "result": "Active"},
      {"measurement": "Activity", "setting": "Candida albicans [10]", "result": "Active"},
      {"measurement": "Activity", "setting": "Candida albicans [11]", "result": "Active"},
      {"measurement": "MIC", "setting": "Candida albicans [5]", "result": 0.06, "unit": "µg/mL"},
      {"measurement": "Activity", "setting": "Candida albicans [12]", "result": "Active"},
      {"measurement": "Activity", "setting": "Candida parapsilosis [13]", "result": "Active"},
      {"measurement": "inhibition at 2 µg/mL", "setting": "Candida albicans [14]", "result": 30, "unit": "%"},
      {"measurement": "inhibition at 2 µg/mL", "setting": "Candida albicans [15]", "result": 30, "unit": "%"}
    ]},
    {"smiles": "C[C@@H](c1ncncc1F)[C@](O)(Cn1cncn1)c1ccc(F)cc1F", "note": "[VORICONAZOLE]", "values": [
      {"measurement": "MIC", "setting": "Candida parapsilosis [1]", "result": 256, "unit": "µg/mL"},
      {"measurement": "MIC", "setting": "Candida parapsilosis [2]", "result": 0.03, "unit": "µg/mL"},
      {"measurement": "MIC", "setting": "Candida albicans [3]", "result": 4, "unit": "µg/mL"},
      {"measurement": "MIC", "setting": "Candida albicans [5]", "result": 0.01, "unit": "µg/mL"},
      {"measurement": "Activity", "setting": "Candida parapsilosis [16]", "result": "inactive"},
      {"measurement": "Activity", "setting": "Candida albicans [17]", "result": "inactive"},
      {"measurement": "Activity", "setting": "Candida albicans [18]", "result": "inactive"}
    ]},
    {"smiles": "CC[C@@H]([C@H](C)O)n1ncn(-c2ccc(N3CCN(c4ccc(OC[C@@H]5CO[C@@](Cn6cncn6)(c6ccc(F)cc6F)C5)cc4)CC3)cc2)c1=O", "note": "[POSACONAZOLE]", "values": [
      {"measurement": "MIC", "setting": "Candida parapsilosis [1]", "result": "> 256", "unit": "µg/mL"},
      {"measurement": "MIC", "setting": "Candida parapsilosis [2]", "result": 0.01, "unit": "µg/mL"},
      {"measurement": "MIC", "setting": "Candida albicans [3]", "result": "≤ 0.001", "unit": "µg/mL"},
      {"measurement": "Activity", "setting": "Candida albicans [19]", "result": "inactive"},
      {"measurement": "MIC", "setting": "Candida albicans [5]", "result": "≤ 0.001", "unit": "µg/mL"},
      {"measurement": "Activity", "setting": "Candida parapsilosis [20]", "result": "inactive"},
      {"measurement": "Activity", "setting": "Candida albicans [21]", "result": "inactive"}
    ]}
  ]
}
